Measurements taken from patent US10208081B2, “Bile acid derivatives as FXR/TGR5 agonists and methods of use thereof” (Enanta Pharmaceuticals, Inc., priority 2014, dated 2019).
pEC50: −log10 of the molar value.

Target: human FXR (NR1H4) (Homo sapiens (Human), UniProt Q96RI1)
Assay: Human FXR (NR1H4) Assay (Gal4 promoter driven luciferase reporter, Indigo Bioscience kit IB00601)
Assay type: cell-based
Conditions: for Efficacy (%): efficacy normalized to CDCA set as 100%; for pEC50: potency ranges
Excerpt: Assays Human FXR (NR1H4) Assay
Determination of a ligand mediated Gal4 promoter driven transactivation quantify ligand binding mediated activation of FXR. FXR Reporter Assay kit purchased from Indigo Bioscience (Catalogue number: IB00601) to determine the potency and efficacy of compound developed by Enanta that can induce FXR activation. The principle application of this reporter assay system is to quantify functional activity of human FXR. The assay utilizes non-human mammalian cells, CHO (Chinese hamster ovary) cells engineered to express human NR1H4 protein (referred to as FXR). Reporter cells also incorporate the cDNA encoding beetle luciferase which catalyzes the substrates and yields photon emission. Luminescence intensity of the reaction is quantified using a plate-reading luminometer, Envision. Reporter Cells include the luciferase reporter gene functionally linked to an FXR responsive promoter. Thus, quantifying changes in luciferase expression in the treated reporter cells provides a sensitive surrogate measure of the changes in FXR activity. […] The assay is according to the manufacturer's instructions. In brief, the assay was performed in white, 96 well plates using final volume of 100 ul containing cells with different doses of compounds. Retrieve Reporter Cells from −80° C. storage. Perform a rapid thaw of the frozen cells by transferring a 10 ml volume of 37° C. cell recovery medium into the tube of frozen cells. Recap the tube of Reporter Cells and immediately place it in a 37° C. water bath for 5-10 minutes. Retrieve the tube of Reporter Cell Suspension from the water bath. Sanitize the outside surface of the tube with a 70% alcohol swab, and then transfer it into the cell culture hood. Dispense 90 μl of cell suspension into each well of the 96-well Assay Plate. Transfer the plate into 37° C. incubator, allowing the cells adherent to the bottom of the well. Dilute compounds in Dilution Plate (DP), and administrate to cells at Assay Plate (AP). DMSO content of the samples was kept at 0.2%. Cells were incubated for additional 22 hours before luciferase activities were measured. Thirty minutes before intending to quantify FXR activity, remove Detection Substrate and Detection Buffer from the refrigerator and place them in a low-light area so that they may equilibrate to room temperature. Remove the plate's lid and discard all media contents by ejecting it into an appropriate waste container. Gently tap the inverted plate onto a clean absorbent paper towel to remove residual droplets. Cells will remain tightly adhered to well bottoms. Add 100 μl of luciferase detection reagent to each well of the assay plate. Allow the assay plate to rest at room temperature for at least 5 minutes following the addition of LDR. Set the instrument (Envision) to perform a single 5 second “plate shake” prior to reading the first assay well. Read time may be 0.5 second (500 mSec) per well.

human FXR (NR1H4), sequence (Q96RI1 whole entry, the tested form may be a part): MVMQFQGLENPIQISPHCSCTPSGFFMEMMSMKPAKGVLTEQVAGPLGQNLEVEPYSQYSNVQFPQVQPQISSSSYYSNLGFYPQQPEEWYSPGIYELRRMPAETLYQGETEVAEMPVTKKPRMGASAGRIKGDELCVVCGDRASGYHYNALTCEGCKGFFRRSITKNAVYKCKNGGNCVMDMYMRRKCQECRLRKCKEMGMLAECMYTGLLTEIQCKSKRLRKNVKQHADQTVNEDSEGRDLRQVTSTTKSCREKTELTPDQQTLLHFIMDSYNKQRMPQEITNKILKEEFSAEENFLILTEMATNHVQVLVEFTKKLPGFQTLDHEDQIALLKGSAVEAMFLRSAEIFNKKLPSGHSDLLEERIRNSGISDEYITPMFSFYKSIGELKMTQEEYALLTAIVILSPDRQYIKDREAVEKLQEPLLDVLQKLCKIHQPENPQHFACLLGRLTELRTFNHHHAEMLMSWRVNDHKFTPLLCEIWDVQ

SMILES | Efficacy (%) | pEC50
CC[C@H]1[C@@H](O)[C@@H]2[C@H](CC[C@]3(C)[C@@H]([C@H](C)CCNC(=O)NS(=O)(=O)N(C(C)C)C(C)C)CC[C@@H]23)[C@@]2(C)CC[C@@H](O)C[C@@H]12 [Example 52] | 281% | 6.00 to 7.00
CC[C@H]1[C@@H](O)[C@@H]2[C@H](CC[C@]3(C)[C@@H]([C@H](C)CCNC(=O)NS(=O)(=O)C4CCC(F)(F)CC4)CC[C@@H]23)[C@@]2(C)CC[C@@H](O)C[C@@H]12 [Example 89] | 351% | > 7.00
CC[C@H]1[C@@H](O)[C@@H]2[C@H](CC[C@]3(C)[C@@H]([C@H](C)CCNS(=O)(=O)CCC(=O)O)CC[C@@H]23)[C@@]2(C)CC[C@@H](O)C[C@@H]12 [Example 141] | 16% | 5.00 to 6.00
CC[C@H]1[C@@H](O)[C@@H]2[C@H](CC[C@]3(C)[C@@H]([C@H](C)CCNC(=O)NS(=O)(=O)c4cccc(N(C)C)c4)CC[C@@H]23)[C@@]2(C)CC[C@@H](O)C[C@@H]12 [Example 112] | 287% | > 7.00
CC[C@H]1[C@@H](O)[C@@H]2[C@H](CC[C@]3(C)[C@@H]([C@H](C)CCNC(=O)NS(=O)(=O)c4cccc(F)c4)CC[C@@H]23)[C@@]2(C)CC[C@@H](O)C[C@@H]12 [Example 51] | 319% | > 7.00
CC[C@H]1[C@@H](O)[C@@H]2[C@H](CC[C@]3(C)[C@@H]([C@H](C)CCNC(=O)NS(=O)(=O)C4CCC(C(C)(C)C)CC4)CC[C@@H]23)[C@@]2(C)CC[C@@H](O)C[C@@H]12 (stereo partly drawn) [Example 88] | 378% | > 7.00
CC[C@H]1[C@@H](O)[C@@H]2[C@H](CC[C@]3(C)[C@@H]([C@H](C)CNC(=O)NS(=O)(=O)c4ccc(N5CCCCC5)cc4)CC[C@@H]23)[C@@]2(C)CC[C@@H](O)C[C@@H]12 [Example 118] | 267% | > 7.00
CC[C@H]1[C@@H](O)[C@@H]2[C@H](CC[C@]3(C)[C@@H]([C@H](C)CCNC(=O)NS(=O)(=O)N4CCN(C(C)(C)C)CC4)CC[C@@H]23)[C@@]2(C)CC[C@@H](O)C[C@@H]12 [Example 84] | 351% | 6.00 to 7.00
CC[C@H]1[C@@H](O)[C@@H]2[C@H](CC[C@]3(C)[C@@H]([C@H](C)CCNC(=O)NS(=O)(=O)N4C[C@H](C)C[C@H](C)C4)CC[C@@H]23)[C@@]2(C)CC[C@@H](O)C[C@@H]12 [Example 97] | 308% | > 7.00
CC[C@H]1[C@@H](O)[C@@H]2[C@H](CC[C@]3(C)[C@@H]([C@H](C)CCNC(=O)NS(=O)(=O)N4C(C)CCC4C)CC[C@@H]23)[C@@]2(C)CC[C@@H](O)C[C@@H]12 (stereo partly drawn) [Example 98] | 344% | > 7.00
CC[C@H]1[C@@H](O)[C@@H]2[C@H](CC[C@]3(C)[C@@H]([C@H](C)CCNC(=O)NS(=O)(=O)c4cccc(OC(F)(F)F)c4)CC[C@@H]23)[C@@]2(C)CC[C@@H](O)C[C@@H]12 [Example 50] | 309% | > 7.00
CC[C@H]1[C@@H](O)[C@@H]2[C@H](CC[C@]3(C)[C@@H]([C@H](C)CNC(=O)NS(=O)(=O)c4ccccc4)CC[C@@H]23)[C@@]2(C)CC[C@@H](O)C[C@@H]12 [Example 31] | 305% | 6.00 to 7.00
CC[C@H]1[C@@H](O)[C@@H]2[C@H](CC[C@]3(C)[C@@H]([C@H](C)CNS(=O)(=O)C(C)(C)C)CC[C@@H]23)[C@@]2(C)CC[C@@H](O)C[C@@H]12 [Example 143] | 6% | 
CC[C@H]1[C@@H](O)[C@@H]2[C@H](CC[C@]3(C)[C@@H]([C@H](C)CCNC(=O)NS(=O)(=O)N4CCS(=O)(=O)CC4)CC[C@@H]23)[C@@]2(C)CC[C@@H](O)C[C@@H]12 [Example 83] | 348% | 5.00 to 6.00
CC[C@H]1[C@@H](O)[C@@H]2[C@H](CC[C@]3(C)[C@@H]([C@H](C)CCCNS(=O)(=O)C(C)C)CC[C@@H]23)[C@@]2(C)CC[C@@H](O)C[C@@H]12 [Example 11] | 267% | 5.00 to 6.00
CC[C@H]1[C@@H](O)[C@@H]2[C@H](CC[C@]3(C)[C@@H]([C@H](C)CCNS(=O)(=O)C(C)(C)C)CC[C@@H]23)[C@@]2(C)CC[C@@H](O)C[C@@H]12 [Example 139] | 138% | 5.00 to 6.00
CC[C@H]1[C@@H](O)[C@@H]2[C@H](CC[C@]3(C)[C@@H]([C@H](C)CCNC(=O)NS(=O)(=O)c4cccc5ncccc45)CC[C@@H]23)[C@@]2(C)CC[C@@H](O)C[C@@H]12 [Example 107] | 311% | 6.00 to 7.00
CC[C@H]1[C@@H](O)[C@@H]2[C@H](CC[C@]3(C)[C@@H]([C@H](C)CCNC(=O)NS(=O)(=O)c4cnn(CC)c4)CC[C@@H]23)[C@@]2(C)CC[C@@H](O)C[C@@H]12 [Example 109] | 219% | 6.00 to 7.00
CC[C@H]1[C@@H](O)[C@@H]2[C@H](CC[C@]3(C)[C@@H]([C@H](C)CCNC(=O)NS(=O)(=O)c4ccc(C(=O)O)cc4)CC[C@@H]23)[C@@]2(C)CC[C@@H](O)C[C@@H]12 [Example 120] | 198% | 5.00 to 6.00
CC[C@H]1[C@@H](O)[C@@H]2[C@H](CC[C@]3(C)[C@@H]([C@H](C)CCNC(=O)NS(=O)(=O)c4cc(F)cc(F)c4)CC[C@@H]23)[C@@]2(C)CC[C@@H](O)C[C@@H]12 [Example 102] | 210% | > 7.00
CC[C@H]1[C@@H](O)[C@@H]2[C@H](CC[C@]3(C)[C@@H]([C@H](C)CCNC(=O)N(C)S(=O)(=O)c4ccccc4)CC[C@@H]23)[C@@]2(C)CC[C@@H](O)C[C@@H]12 [Example 56] | 295% | 6.00 to 7.00
CC[C@H]1[C@@H](O)[C@@H]2[C@H](CC[C@]3(C)[C@@H]([C@H](C)CNC(=O)NS(=O)(=O)c4ccc(-c5ccccc5)s4)CC[C@@H]23)[C@@]2(C)CC[C@@H](O)C[C@@H]12 [Example 114] | 322% | > 7.00
CC[C@H]1[C@@H](O)[C@@H]2[C@H](CC[C@]3(C)[C@@H]([C@H](C)CCNS(=O)(=O)c4cccc(N5CCCCC5)c4)CC[C@@H]23)[C@@]2(C)CC[C@@H](O)C[C@@H]12 [Example 133] | 80% | < 5.00
CC[C@H]1[C@@H](O)[C@@H]2[C@H](CC[C@]3(C)[C@@H]([C@H](C)CCNC(=O)NS(=O)(=O)c4ccc(C(C)(C)CO)cc4)CC[C@@H]23)[C@@]2(C)CC[C@@H](O)C[C@@H]12 [Example 69] | 490% | > 7.00
CC[C@H]1[C@@H](O)[C@@H]2[C@H](CC[C@]3(C)[C@@H]([C@H](C)CCNC(=O)NS(=O)(=O)c4ccc(N(C)C)cc4)CC[C@@H]23)[C@@]2(C)CC[C@@H](O)C[C@@H]12 [Example 119] | 363% | > 7.00
CC[C@H]1[C@@H](O)[C@@H]2[C@H](CC[C@]3(C)[C@@H]([C@H](C)CCNC(=O)NS(=O)(=O)c4ccc(C(C)(C)C(=O)OC)cc4)CC[C@@H]23)[C@@]2(C)CC[C@@H](O)C[C@@H]12 [Example 70] | 434% | > 7.00
CC[C@H]1[C@@H](O)[C@@H]2[C@H](CC[C@]3(C)[C@@H]([C@H](C)CCNC(=O)NS(=O)(=O)C[C@@]45CCC(CC4=O)C5(C)C)CC[C@@H]23)[C@@]2(C)CC[C@@H](O)C[C@@H]12 [Example 61] | 403% | > 7.00
CC[C@H]1[C@@H](O)[C@@H]2[C@H](CC[C@]3(C)[C@@H]([C@H](C)CCNC(=O)NS(=O)(=O)C4CCCCC4)CC[C@@H]23)[C@@]2(C)CC[C@@H](O)C[C@@H]12 [Example 22] | 477% | > 7.00
CC[C@H]1[C@@H](O)[C@@H]2[C@H](CC[C@]3(C)[C@@H]([C@H](C)CCNC(=O)NS(=O)(=O)c4ccc(C5(C(F)(F)F)CC5)cc4)CC[C@@H]23)[C@@]2(C)CC[C@@H](O)C[C@@H]12 [Example 106] | 281% | > 7.00
